# In patent publication US20230337674A1, “FUNGICIDAL COMPOSITIONS” (SYNGENTA CROP PROTECTION AG, priority 2020, published 2023):
# Several values for one entry are separate records, joined by “and”; a condition that tells them apart may be missing. Equal entries are not always repeated. Where two headings read alike, the source gives them in different places.
# Columns and labels:
# Septoria tritici = Septoria tritici growth inhibition in nutrient broth (microtiter plate); type: cell-based; conditions: Zymoseptoria tritici, read-out: Observed Activity (%)
# Experimental: Septoria tritici (Leaf Blotch):
# (§1) Conidia of the fungus from cryogenic storage were directly mixed into nutrient broth (PDB potato dextrose broth). A DMSO solution of the test compounds was placed into a microtiter plate (96-well format) and the nutrient broth containing the fungal spores was added to it. The test plates were incubated at 24° C. and the inhibition of growth was determined photometrically after 72 hrs.
# Phakopsora pachyrhizi = Phakopsora pachyrhizi on leaf disks from treated whole soybean plants; type: in vivo; conditions: evaluation 11 to 14 days after inoculation; for inhibition at 0.25 g/ha / inhibition at 0.5 g/ha / inhibition at 1 g/ha / inhibition at 2 g/ha: Phakopsora pachyrhizi, foliar
# Experimental: Phakopsora pachyrhizi (Soybean Rust):
# Whole soybean plants are treated with the recited active ingredients 4 weeks after planting. 1 day after spraying leaf disks are cut from the first trifoliate leaf. Five repetitions at each rate are conducted. The leaf disks are inoculated with Phakopsora pachyrhizi (Asian soybean rust) one day after treatment. Evaluation of the leaf disks is conducted 11 to 14 days after inoculation and the activity is derived from the relation of the treated vs untreated, infested check. The rates of the active ingredients used are given in Table as g active ingredient (a.i.)/ha.
# Corynespora cassiicola = Corynespora cassiicola growth inhibition in nutrient broth (microtiter plate); type: cell-based; conditions: read-out: Observed Activity (%)
# Experimental: Corynespora cassiicola (Target Spot of Soybean, Target Leaf Spot of Tomato):
# as §1, with “3-4 days at 620 nm.” for “72 hrs.”
# [1] = single active, 0.5 g/ha, read-out: Observed Activity (%)
# [2] = single active, read-out: Observed Activity (%)
smiles,measurement,setting,value
"CNC(=O)C(F)(F)c1ccc(-c2noc(C(F)(F)F)n2)cc1 [Compound A-1.1, 2,2-difluoro-N-methyl-2-[4-[5-(trifluoromethyl)-1,2,4-oxadiazol-3-yl]phenyl]acetamide]",inhibition at 5 ppm,"Septoria tritici; single active, 72 hrs, 24° C.",20%
same,inhibition at 10 ppm,"Septoria tritici; single active, 10 ppm, 72 hrs, 24° C.",20%
same,inhibition at 20 ppm,"Septoria tritici; single active, 20 ppm, 72 hrs, 24° C.",50%
same,inhibition at 0.25 g/ha,"Phakopsora pachyrhizi; single active, 0.25 g/ha, read-out: Observed Activity (%)",0%
same,inhibition at 0.5 g/ha,Phakopsora pachyrhizi; [1],3%
same,inhibition at 1 g/ha,Phakopsora pachyrhizi; [2],54%
"CNC(=S)c1ccc(-c2noc(C(F)(F)F)n2)cc1 [Compound A-1.2, N-methyl-4-[5-(trifluoromethyl)-1,2,4-oxadiazol-3-yl]benzenecarbothioamide]",inhibition at 5 ppm,"Septoria tritici; single active, 72 hrs, 24° C.",50%
same,inhibition at 0.5 g/ha,Phakopsora pachyrhizi; [1],0%
same,inhibition at 1 g/ha,Phakopsora pachyrhizi; [2],88%
same,inhibition at 2 g/ha,Phakopsora pachyrhizi; [2],95%
same,inhibition at 5 ppm,"Corynespora cassiicola; single active, 5 ppm, 3-4 days, 24° C.",0%
same,inhibition at 10 ppm,"Corynespora cassiicola; single active, 10 ppm, 3-4 days, 24° C.",0%
same,inhibition at 20 ppm,"Corynespora cassiicola; single active, 20 ppm, 3-4 days, 24° C.",0%
"O=C(Nc1ccccc1F)c1ccc(-c2noc(C(F)(F)F)n2)cc1 [Compound A-1.3, N-(2-fluorophenyl)-4-[5-(trifluoromethyl)-1,2,4-oxadiazol-3-yl]benzamide]",inhibition at 0.5 g/ha,Phakopsora pachyrhizi; [1],0%
same,inhibition at 1 g/ha,Phakopsora pachyrhizi; [2],29%
same,inhibition at 2 g/ha,Phakopsora pachyrhizi; [2],78%
"C[C@@H]1CC(C)(C)c2cccc(NC(=O)c3cn(C)nc3C(F)F)c21 [Inpyrfluxam, 3-(difluoromethyl)-1-methyl-N-[(3R)-1,1,3-trimethylindan-4-yl]pyrazole-4-carboxamide, reference compound]",inhibition at 0.02 ppm,Septoria tritici; 72 h,0%
same,inhibition at 0.04 ppm,Septoria tritici; 72 h,20%
same,inhibition at 0.25 g/ha,"Phakopsora pachyrhizi; read-out: Observed Activity (%), single active, 0.25 g/ha",50%
same,Observed Activity (%),"Phakopsora pachyrhizi; single active, 0.5 g/ha",46% and 82%
same,inhibition at 0.01 ppm,Corynespora cassiicola,0%
same,inhibition at 0.02 ppm,Corynespora cassiicola,0%
